Values of other authors in patent publication US20140154783A1, “BIOPROCESSING” (priority 2009, published 2014).

Columns and labels:
[1] = tested on: influenza A (avian plague virus); settings: high concentrations; chick embryo fibroblasts infected with influenza A (avian plague virus); Klenk et al. 1972
neuraminidase = settings: influenza-infected MDCK cells; Barrere et al. 1997; read-out: Ki, reversible inhibition of neuraminidase

SMILES | formation of hemagglutinin, neuraminidase, and mature virions [1] | Ki (neuraminidase) [µM]
N[C@H]1C(O)O[C@H](CO)[C@@H](O)[C@@H]1O (stereo partly drawn) [D-glucosamine] | inhibited | 
O=CC[C@@H](O)[C@H](O)[C@H](O)CO [2-deoxy-D-glucose] | inhibited | 
COc1cc(C(F)F)ccc1OC1(C(=O)O)CC(O)C(NC(C)=O)C(C(O)C(O)CO)O1 (stereo not drawn) [4-difluoromethyl-2-methoxy-phenyl-α-ketoside of N-acetylneuraminic acid] |  | 80
